Assay [1] relates to ovariectomized (OVX) mice. As to the kind of experiment: Animal model of osteoporosis, ovariectomized (OVX) mice. Type of assay: in vivo. The text has this:
An ability of QG3030 to treat osteoporosis was confirmed in an animal model of ovariectomized (OVX) mice commonly used as an animal model of osteoporosis.
As the positive controls, parathyroid hormone (PTH)-based Forteo (Eli Lilly) used as an osteoporosis therapeutic agent through an osteogenesis-promoting mechanism, and alendronate-based Fosamax (Merck) serving as a bone resorption inhibitor were subcutaneously administered. As the negative control, water (H2O) was orally administered, and QG3030 was orally administered at a concentration of 5 or 30 mg/kg (FIG. 9A). After the drug was administered daily for 10 weeks, the bone mineral density (BMD) was measured.
In Table 2, BMD represents bone mineral density, TV represents total volume, BV represents bone volume, Tb.Th represents trabecular thickness, and Tb.N represents trabecular number.

The next assay has as its system human MSCs. In words: Osteocytic differentiation potential in MSCs (Alizarin Red and Von Kossa staining). Format: cell-based. To be noted: 0.1 μM, cultured for 3 weeks, like OIM positive control. The method, then: Osteoblasts involved in the osteogenesis are formed by differentiating mesenchymal stem cells (MSCs) using external stimuli and transcription factors involved in various signaling pathways (Garg et al., Orthop Surg. 2017). Accordingly, an experiment was performed to check whether QG3030 was able to induce the differentiation of human MSCs into osteoblasts.
MSCs from normal humans were purchased from the American Type Culture Collection (ATCC, U.S.A), and cultured in an MSC-specific culture medium (Gibco). The cultured cells were digested with trypsin, centrifuged, and then seeded in a 24-well plate at a concentration of 3×10^4 cells/well. The next day, the MSC culture medium was exchanged with a DMEM (DMEM/10% FBS/penicillin/streptomycin) as an experimental medium, and the cells were treated with QG3030 alone (0.1 μM) or OIM (osteogenesis-inducing medium; StemPro Osteogenesis Differentiation Kit, ThermoFisher Scientific Inc.) as the positive control. Thereafter, the cell culture medium was exchanged with a fresh DMEM every day, treated with QG3030 or OIM, and then cultured for 3 weeks. After the culture was completed, the cells were stained with Alizarin Red for detection of calcium and Von Kossa for detection of mineral production.

The subject of assay [2] is RUNX2. In words: Change in expression of RUNX2 in MSCs (antibody staining, fluorescence microscope). To be noted: 0.001 μM, once a day for 7 and 14 days; increased with increasing concentration. Type of assay: cell-based, human. The text has this:
(§1) Runt-related transcription factor 2 (RUNX2; core-binding factor alpha, Cbfa1) is the most important transcriptional regulatory factor for osteogenesis, and is known to be involved in osteoblast differentiation, matrix generation, and mineralization during osteogenesis (Bruderer M, et al., Eur Cell Mater. 2014). Also, RUNX2 itself may be regulated by a bone morphogenetic protein (BMP), which is a type of cytokine (Sun J, et al., Mol Med Rep. 2015). Accordingly, it was confirmed whether QG3030 promotes the expression of osteogenesis-related specific factors to induce osteogenesis.
(§2) MSCs were seeded in a 24-well plate at a concentration of 3×10^4 cells/well, and cultured for 24 hours. From the next day, the MSCs were treated with different concentrations (0.001 μM, 0.01 μM, and 0.1 μM) of QG3030 once a day for 7 days and 14 days. After the experiment was completed, the MSCs were stained with RUNX2 and BMP-2 antibodies, and observed using a fluorescence microscope.

The subject of a further assay is BMP-2. As to the kind of experiment: Change in expression of BMP-2 in MSCs (antibody staining, fluorescence microscope). Format: cell-based, human. To be noted: 0.001 μM, once a day for 7 and 14 days; increased with increasing concentration.
Description: as §1, §2

Another assay deals with osteocalcin. In words: Change in expression of osteocalcin in MSCs (antibody staining, fluorescence microscope). Format: cell-based, human. To be noted: 0.001 μM, within 7 days. The method, then: Osteocalcin is expressed only in osteoblasts (Lee et al., Cell 2007), and is used as a biomarker useful for osteogenesis (Bharadwaj et al., Osteoporosis International., 2009).
An experiment was performed in the same manner as described in Experimental Example 1-2, and MSCs were then stained with an osteocalcin antibody, and observed using a fluorescence microscope.

The next assay deals with ERK, Akt, WNK1. In words: Phosphokinase antibody array in MSCs. Type of assay: cell-based, human. The note with it: 1 μM, 24 hours, compared to control DMSO. The method, then:
To study a mechanism by which QG3030 differentiates MSCs into osteoblasts, related signaling was investigated.
MSCs cultured in an experimental DMEM were treated with QG3030 (1 μM) or the control compound (DMSO), and cultured for 24 hours. The cells were recovered, and an experiment was then performed according to a method specified in a phosphokinase antibody array kit (R&D Systems) containing antibodies that specifically recognize phosphorylated forms of 43 kinases. Then, samples were analyzed using an ImageJ (NIH, USA) program.

The subject of another assay is MSCs. In words: Osteoblast differentiation of MSCs with kinase inhibitor combination (Alizarin Red). Type of assay: cell-based, human. To be noted: QG3030 1 μM + kinase inhibitor 1 μM, 3 weeks, compared to QG3030-alone group. The method, then: To further study the mechanism by which QG3030 differentiates MSCs into osteoblasts, an experiment was performed using a kinase inhibitor.
After MSCs were cultured, the MSCs were simultaneously treated with a kinase inhibitor (1 μM) and QG3030 (1 μM). The next day, the medium was exchanged, and the MSCs were simultaneously treated again with the kinase inhibitor and QG3030. This procedure was repeated for 3 weeks, and the MSCs were then stained with Alizarin Red.

In assay [3] the test system is ERK. As to the kind of experiment: Level of phosphorylated ERK (pERK) in MSCs over time. Type of assay: cell-based, human. The method, then: Accordingly, the level of the phosphorylated ERK according to time elapsed after MSCs were treated with QG3030 was determined.
Also, to determine whether QG3030 induces ERK phosphorylation for a long period, MSCs were treated with various concentrations (0.001, 0.01, and 0.1 μM) of QG3030, and the level of phosphorylated ERK (pERK) was checked after 7 days and 14 days.

Assay [4] has as its system RUNX2. As to the kind of experiment: RUNX2 expression in MSCs with QG3030 and ERK inhibitor PD98059. Type of assay: cell-based, human. To be noted: same at 24 hours. The method, then:
(§3) ERK may induce the phosphorylation of RUNX2 to increase transcriptional activity and may be involved in stability to increase an amount of RUNX2 protein (Greenblatt et al., MB, Annu Rev Cell Dev Biol. 2013). Therefore, an increase in ERK phosphorylation by QG3030 may induce RUNX2 expression so that QG3030 can be involved in the differentiation of MSCs into osteoblasts. To verify this, an expression level of RUNX2 was determined after MSCs were treated with a combination of QG3030 (0.1 μM) and the ERK inhibitor PD98059 (50 μM).

The subject of assay [5] is ERK. As to the kind of experiment: Phosphorylated ERK in MSCs with QG3030 and ERK inhibitor PD98059. Type of assay: cell-based, human. The method, then:
as §3

In a further assay the test system is Sprague Dawley (SD) rat. In words: Animal model of bone fracture, ilium bone defect. Format: in vivo. The method, then:
The ilium of a Sprague Dawley (SD) rat was subjected to drilling with a diameter of 2 mm to induce a bone defect, and QG3030 (6, 30, and 150 μg/10 μL) mixed with an excipient (collagen sponge, CollaCote®) was implanted into a bone defect site to evaluate an osteoanagenic effect (FIG. 11).
To statistically quantify the osteoanagenic capacity of QG3030, a degree of osteogenesis was realized with a 3-D image, and a region of interest (ROI) was set to analyze parameters such as bone volume/total volume (BV/TV; %), trabecular thickness (Tb.Th; mm), trabecular number (Tb.N; 1/mm), and trabecular separation (Tb.Sp; mm).

[6] abbreviates: OVX mice, positive control, subcutaneous, daily for 10 weeks.
Where [7] appears, read: OVX mice, 5 mg/kg oral, daily for 10 weeks.
Setting [8] is: OVX mice, 30 mg/kg oral, daily for 10 weeks.
The mark [9] stands for this setting: OVX mice, 5 or 30 mg/kg oral, daily for 10 weeks.
[10] abbreviates: implanted in collagen sponge at bone defect site, QG3030 low, medium and high, BMP2 1 ug/10 uL.

Structures are written as SMILES.

The values below come from patent US12516027B2, “Lappaconitine derivative and use thereof” (priority 2020, dated 2026).

In assay [1] (setting [6]), `CC[C@H](C)[C@H](NC(=O)[C@H](CCC(=O)O)NC(=O)[C@H](CO)NC(=O)[C@@H](NC(=O)[C@@H](N)CO)C(C)C)C(=O)N[C@@H](CCC(N)=O)C(=O)N[C@@H](CC(C)C)C(=O)N[C@@H](CCSC)C(=O)N[C@@H](Cc1cnc[nH]1)C(=O)N[C@@H](CC(N)=O)C(=O)N[C@@H](CC(C)C)C(=O)NCC(=O)N[C@@H](CCCCN)C(=O)N[C@@H](Cc1cnc[nH]1)C(=O)N[C@@H](CC(C)C)C(=O)N[C@@H](CC(N)=O)C(=O)N[C@@H](CO)C(=O)N[C@@H](CCSC)C(=O)N[C@@H](CCC(=O)O)C(=O)N[C@@H](CCCN=C(N)N)C(=O)N[C@H](C(=O)N[C@@H](CCC(=O)O)C(=O)N[C@@H](Cc1c[nH]c2ccccc12)C(=O)N[C@@H](CC(C)C)C(=O)N[C@@H](CCCN=C(N)N)C(=O)N[C@@H](CCCCN)C(=O)N[C@@H](CCCCN)C(=O)N[C@@H](CC(C)C)C(=O)N[C@@H](CCC(N)=O)C(=O)N[C@@H](CC(=O)O)C(=O)N[C@H](C(=O)N[C@@H](Cc1cnc[nH]1)C(=O)N[C@@H](CC(N)=O)C(=O)N[C@@H](Cc1ccccc1)C(=O)O)C(C)C)C(C)C` [Forteo, reference compound] displayed a BMD of 0.1997 g/mL, a BV of 0.8791 mm^3, a BV/TV of 5.735% and a TV of 15.43 mm^3.
In the case of `CCN1C[C@]2(O)CC[C@H](OC)C34C1C(C[C@@H]32)[C@]1(O)C[C@H](OC)[C@@H]2C(=O)C(=O)[C@H]4[C@@H]21` [QG3030, (2aR,2a1S,3S,4aS,8S,11S,11bS,12S)-6-ethyl-4a,8-dihydroxy-3,11-dimethoxy-tetradecahydro-8,11a,5-(epiethane[1,1,2]triyl)cyclopenta[7,1]indeno[5,4-b]azocin-1,2-dione], in the assay with human MSCs, the “calcium (Alizarin Red staining)” value is “induced calcium and mineral production”; the “mineral production (Von Kossa staining)” value is “induced calcium and mineral production”. Moreover, the “expression of RUNX2” value in the assay on RUNX2 [2] is reported as “strongly induced the expression”. Besides, the “expression of BMP-2” value in the assay on BMP-2 is reported as “strongly induced the expression”. For the same compound, the expression of osteocalcin result in the assay on osteocalcin is given as “strongly induced the expression of osteocalcin”. Also, in the assay with ERK, Akt, WNK1, the “phosphorylation of signaling molecules such as ERK, Akt, WNK1” value was “strongly increased the phosphorylation”. Besides, the “osteoblast differentiation ability of QG3030 (Alizarin Red) in combination with inhibitor of ERK, P38 or Akt” value in the assay on MSCs is recorded as “inhibited”. The “level of phosphorylated ERK (pERK)” value with ERK [3] (0.001, 0.01 and 0.1 μM, after 7 days and 14 days) is listed as “significantly increased”. Besides, the “level of phosphorylated ERK (pERK)” value with ERK [3] (after 24 hours after treatment) was “increased”. In addition, the “level of phosphorylated ERK (pERK) compared with positive control (OIM)” value in the assay with ERK [3] (low concentration, 7 days, lasted until 14 days) is given as “greater than that of the positive control”. In the assay on ERK [3] (within 30 minutes after treatment), the “level of phosphorylated ERK (pERK)” value is on record as “significantly increased”. Also, in the assay with RUNX2 [4] (QG3030 0.1 μM alone, within 12 hours), the “expression of RUNX2” value is recorded as “significantly increased”. In the assay with ERK [5] (QG3030 0.1 μM alone), the “phosphorylation level of ERK” value is “increased”. In assay [1] (setting [7]), the BMD turned out to be 0.2136 g/mL, the BV was determined as 1.107 mm^3, the BV/TV amounted to 6.713% and the TV was 16.57 mm^3. Further, in assay [1] (setting [7]), the “Tb. N” value is reported as 0.9472 1/mm and the “Tb. Th” value came to 0.07081 mm. Further, in assay [1] (setting [8]), the BMD was 0.2301 g/mL, the BV is on record as 1.156 mm^3, the BV/TV is listed as 7.731% and the TV amounted to 14.92 mm^3. For the same compound, in [1] (setting [8]), the “Tb. N” value is 1.044 1/mm and the “Tb. Th” value stood at 0.07492 mm. In [1] (setting [9]), the “bone mineral density compared to the negative control” value is “significantly increased” and the “effect on bone mineral density compared with Forteo” value was “significantly superior to that of Forteo”. In [1] (ovariectomized mice), the “expression of RUNX2 in the femurs (tissue staining)” value is “significantly increased” and the “osteogenesis in the femurs (tissue staining)” value is “induced osteogenesis”. In the assay on Sprague Dawley (SD) rat (QG3030 low, medium and high concentrations, effect similar to BMP2), the “tissue staining markers (H&E, collagen, type I collagen, osteocalcin) at bone defect sites” value is on record as “markers were expressed”. Further, in the assay on Sprague Dawley (SD) rat (setting [10]), the “bone quality by Tb.N and Tb.Sp (other than Tb.Th) compared to DMSO-treated group” value is “high-quality bone tissue was statistically significantly formed”; the “bone volume/total volume (BV/TV) compared to negative control treated with DMSO” value was “increased to a similar level”. Also, in the assay on Sprague Dawley (SD) rat (no statistical significance), the “quality of generated bone compared to BMP2” value is listed as “better quality of bone compared to BMP2”.
On to `NCCCC(O)(P(=O)(O)O)P(=O)(O)O` [Fosamax, reference compound], for which, in [1] (setting [6]), the BMD worked out at 0.2135 g/mL, the BV is on record as 1.017 mm^3, the BV/TV is 6.521% and the TV is recorded as 15.51 mm^3.
As to `COc1cccc(-c2cc(=O)c3ccccc3o2)c1N` [PD98059, reference compound], the “expression of RUNX2” value in the assay with RUNX2 [4] (combination of QG3030 0.1 μM and PD98059 50 μM, 12 hours) is reported as “significantly decreased”. Moreover, in the assay with ERK [5] (combination of QG3030 0.1 μM and PD98059 50 μM), the “increase in the phosphorylation level of ERK by QG3030” value is on record as “inhibited”.
